Among the data in PubChem BioAssay AID328 (DTP/NCI, 2004) are T/C values, retold here.

Several values for one entry are separate records, joined by “and”; a condition that tells them apart may be missing. Equal values may be shown once. Toxic doses and inconclusive results are not listed.

The subject of this assay is BDF1 mice, P388 leukemia ip, median survival T/C. Kind of assay: NCI In Vivo Anticancer Drug Screen. Data for tumor model P388 Leukemia (intraperitoneal) in B6D2F1 (BDF1) mice. The conditions noted are these: endpoint: median survival time, higher = longer survival. An outline of the steps:
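Vehicle-dosed animals serve as the reference; survival of compound-dosed, tumour-implanted mice is divided by it.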

Where [1] appears, read: dose: 25.0 mg/kg/injection, schedule: Q01DX009 (ip), vehicle: saline.
The mark [2] stands for this setting: dose: 50.0 mg/kg/injection, schedule: Q01DX009 (ip), vehicle: saline.
Setting [3] is: dose: 200.0 mg/kg/injection, schedule: Q04DX003 (ip), vehicle: saline.
Where [4] appears, read: dose: 400.0 mg/kg/injection, schedule: Q04DX003 (ip), vehicle: saline.
[5] abbreviates: dose: 25.0 mg/kg/injection, schedule: Q01DX009 (ip), vehicle: saline with Tween-80.
The mark [6] stands for this setting: dose: 100.0 mg/kg/injection, schedule: Q04DX003 (ip), vehicle: Klucel (hydroxypropylcellulose) (HPC).
Where [7] appears, read: dose: 50.0 mg/kg/injection, schedule: Q01DX009 (ip), vehicle: saline with Tween-80.
Setting [8] is: dose: 100.0 mg/kg/injection, schedule: Q01DX009 (ip), vehicle: saline with Tween-80.

As to `O=C1CC=C(Nc2ccc(Br)cc2)C(=O)O1`, the T/C runs as follows: under setting [1], 99 % of control; under setting [2], 101 % of control; (dose: 100.0 mg/kg/injection, schedule: Q01DX009 (ip), vehicle: saline) 105 % of control; (dose: 100.0 mg/kg/injection, schedule: Q04DX003 (ip), vehicle: saline) 112 % of control; (dose: 200.0 mg/kg/injection, schedule: Q01DX009 (ip), vehicle: saline) 92 % of control; under setting [3], 91 % of control. Moreover, the T/C is, setting by setting: (dose: 400.0 mg/kg/injection, schedule: Q01DX009 (ip), vehicle: saline) 99 % of control; under setting [4], 107 % of control.
Consider `CCOC(=O)c1ccc(N=CNc2ccc(C(=O)OCC)cc2)cc1`, for which the T/C is, setting by setting: (dose: 12.5 mg/kg/injection, schedule: Q01DX009 (ip), vehicle: saline with Tween-80) 100 % of control; under setting [5], 92 % of control; (dose: 25.0 mg/kg/injection, schedule: Q04DX003 (ip), vehicle: saline with Tween-80) 91 % of control; (dose: 50.0 mg/kg/injection, schedule: Q04DX003 (ip), vehicle: saline with Tween-80) 87 % of control.
In the case of `C/C=C(/C)C(=O)O[C@H]1CC[N+]2([O-])CC=C(COC(=O)[C@@](O)([C@H](C)OC)C(C)(C)O)[C@H]12` (stereo not given in full), the T/C by setting is: (dose: 40.0 mg/kg/injection, schedule: Q01DX010 (ip), vehicle: saline) 105 % of control; (dose: 50.0 mg/kg/injection, schedule: Q01DX010 (ip), vehicle: saline) 86 % of control; (dose: 80.0 mg/kg/injection, schedule: Q01DX010 (ip), vehicle: saline) 111 % of control.
Turning to `CN(C)c1nn2c(-c3ccccc3)nnc2o1`, the T/C is 105 % of control under setting [3] and 120 % of control under setting [4].
As for `O=[N+]([O-])c1ccc(Nc2ccc(Cl)c(Cl)c2)c2c1no[n+]2[O-]`, the T/C is 88 % of control (dose: 17.5 mg/kg/injection, schedule: Q01DX009 (ip), vehicle: saline with Tween-80); 92 % of control (dose: 35.0 mg/kg/injection, schedule: Q01DX009 (ip), vehicle: saline with Tween-80); 88 % of control (dose: 70.0 mg/kg/injection, schedule: Q01DX009 (ip), vehicle: saline with Tween-80).
`CC(C)COC(=O)c1ccccc1O`: the T/C runs as follows: (dose: 75.0 mg/kg/injection, schedule: Q01DX009 (ip), vehicle: Klucel (hydroxypropylcellulose) (HPC)) 109 % of control; under setting [6], 111 % of control; (dose: 150.0 mg/kg/injection, schedule: Q01DX009 (ip), vehicle: Klucel (hydroxypropylcellulose) (HPC)) 90 % of control; (dose: 200.0 mg/kg/injection, schedule: Q04DX003 (ip), vehicle: Klucel (hydroxypropylcellulose) (HPC)) 92 % of control; (dose: 300.0 mg/kg/injection, schedule: Q01DX009 (ip), vehicle: Klucel (hydroxypropylcellulose) (HPC)) 109 % of control.
As to `C[C@]12CCC(=O)C=C1CC[C@@H]1[C@@H]2[C@@H](O)C[C@@]2(C)[C@H]1CC[C@]2(O)C(=O)COC(=O)CCC(=O)O`, the T/C was 111 % of control (dose: 50.0 mg/kg/injection, schedule: Q01DX009 (sc), vehicle: steriod suspending solution); 111 % of control (dose: 100.0 mg/kg/injection, schedule: Q01DX009 (sc), vehicle: steriod suspending solution); 100 % of control (dose: 100.0 mg/kg/injection, schedule: Q04DX003 (sc), vehicle: steriod suspending solution); 116 % of control (dose: 200.0 mg/kg/injection, schedule: Q01DX009 (sc), vehicle: steriod suspending solution); 104 % of control (dose: 200.0 mg/kg/injection, schedule: Q04DX003 (sc), vehicle: steriod suspending solution); 111 % of control (dose: 400.0 mg/kg/injection, schedule: Q01DX009 (sc), vehicle: steriod suspending solution). Moreover, under “dose: 400.0 mg/kg/injection, schedule: Q04DX003 (sc), vehicle: steriod suspending solution”, the T/C was 100 % of control.
As to `NC(=O)c1nc(-c2ccccc2)c(-c2ccccc2)[nH]c1=O`, the T/C under setting [7] was 109 % of control; the T/C under setting [8] is 117 % of control; the T/C (dose: 100.0 mg/kg/injection, schedule: Q04DX003 (ip), vehicle: saline with Tween-80) is 106 % of control; the T/C (dose: 200.0 mg/kg/injection, schedule: Q01DX009 (ip), vehicle: saline with Tween-80) was 99 % of control; the T/C (dose: 200.0 mg/kg/injection, schedule: Q04DX003 (ip), vehicle: saline with Tween-80) was 102 % of control; the T/C (dose: 400.0 mg/kg/injection, schedule: Q04DX003 (ip), vehicle: saline with Tween-80) is 116 % of control.
For the molecule `Cc1ccccc1C[P+](c1ccccc1)(c1ccccc1)c1ccccc1`, the T/C is, setting by setting: (dose: 0.39 mg/kg/injection, schedule: Q01DX009 (ip), vehicle: Klucel (hydroxypropylcellulose) (HPC)) 100 % of control; (dose: 0.39 mg/kg/injection, schedule: Q04DX003 (ip), vehicle: Klucel (hydroxypropylcellulose) (HPC)) 100 % of control; (dose: 0.78 mg/kg/injection, schedule: Q01DX009 (ip), vehicle: Klucel (hydroxypropylcellulose) (HPC)) 108 % of control; (dose: 0.78 mg/kg/injection, schedule: Q04DX003 (ip), vehicle: Klucel (hydroxypropylcellulose) (HPC)) 122 % of control; (dose: 1.56 mg/kg/injection, schedule: Q01DX009 (ip), vehicle: Klucel (hydroxypropylcellulose) (HPC)) 112 % of control; (dose: 1.56 mg/kg/injection, schedule: Q04DX003 (ip), vehicle: Klucel (hydroxypropylcellulose) (HPC)) 113 % of control. The T/C was 150 % of control (dose: 3.12 mg/kg/injection, schedule: Q01DX009 (ip), vehicle: saline); 104 % of control (dose: 3.5 mg/kg/injection, schedule: Q04DX003 (ip), vehicle: Klucel (hydroxypropylcellulose) (HPC)); 113 % of control (dose: 13.2 mg/kg/injection, schedule: Q04DX003 (ip), vehicle: saline with Tween-80); 104 % of control (dose: 30.0 mg/kg/injection, schedule: Q04DX003 (ip), vehicle: saline with Tween-80).
Consider `COc1cccc(CC2=NCCc3cc(OC)c(OC)cc32)c1`, for which the T/C was 108 % of control (dose: 6.25 mg/kg/injection, schedule: Q01DX009 (ip), vehicle: saline); 94 % of control (dose: 12.5 mg/kg/injection, schedule: Q01DX009 (ip), vehicle: saline); 94 % of control under setting [1]; 87 % of control (dose: 25.0 mg/kg/injection, schedule: Q04DX003 (ip), vehicle: saline); 95 % of control and 98 % of control under setting [2]; 91 % of control (dose: 50.0 mg/kg/injection, schedule: Q04DX003 (ip), vehicle: saline).
With `CCn1cnc2c(=S)nc(N)[nH]c21`, the T/C was 100 % of control (dose: 3.12 mg/kg/injection, schedule: Q01DX009 (ip), vehicle: Klucel (hydroxypropylcellulose) (HPC)); 118 % of control (dose: 6.25 mg/kg/injection, schedule: Q01DX009 (ip), vehicle: Klucel (hydroxypropylcellulose) (HPC)); 90 % of control (dose: 12.5 mg/kg/injection, schedule: Q01DX009 (ip), vehicle: Klucel (hydroxypropylcellulose) (HPC)); 100 % of control (dose: 25.0 mg/kg/injection, schedule: Q04DX003 (ip), vehicle: Klucel (hydroxypropylcellulose) (HPC)); 100 % of control (dose: 50.0 mg/kg/injection, schedule: Q04DX003 (ip), vehicle: Klucel (hydroxypropylcellulose) (HPC)); 104 % of control under setting [6].
Consider `COC(=O)C1(C)N=C(Cc2ccccc2)OO1` (stereo not given), for which the T/C runs as follows: under setting [5], 100 % of control; under setting [7], 110 % of control; under setting [8], 105 % of control.
As for `[NH-]C(CO)C(=O)O.[NH-]C(CO)C(=O)O.[Pd+2]` (stereo not given), where the note is “dose: 12.5 mg/kg/injection, schedule: Q01DX009 (ip), vehicle: water”, the T/C is 106 % of control.
As for `NN=C(c1ccccc1)c1ccccc1`, the T/C by setting is: (dose: 20.93 mg/kg/injection, schedule: Q01DX009 (ip), vehicle: Klucel (hydroxypropylcellulose) (HPC)) 86 % of control; (dose: 31.25 mg/kg/injection, schedule: Q04DX003 (ip), vehicle: Klucel (hydroxypropylcellulose) (HPC)) 90 % of control and 104 % of control; (dose: 41.87 mg/kg/injection, schedule: Q01DX009 (ip), vehicle: Klucel (hydroxypropylcellulose) (HPC)) 95 % of control; (dose: 62.5 mg/kg/injection, schedule: Q04DX003 (ip), vehicle: Klucel (hydroxypropylcellulose) (HPC)) 90 % of control; (dose: 125.0 mg/kg/injection, schedule: Q04DX003 (ip), vehicle: Klucel (hydroxypropylcellulose) (HPC)) 90 % of control; (dose: 190.0 mg/kg/injection, schedule: Q04DX003 (ip), vehicle: Klucel (hydroxypropylcellulose) (HPC)) 86 % of control.
